Results published in patent US20130059783A1, “COMPOSITIONS AND METHODS FOR EXPANDING BFU-E CELLS” (priority 2010, published 2013).

What was measured:
BFU-E cells [1] = experiment: CFU-E and BFU-E colony forming assays of BFU-E cells cultured in SFELE medium; format: cell-based, mouse; details: for Total colony numbers from 1,000 "BFU-E" cells: CFU-E 1 cluster / Total colony numbers from 1,000 "BFU-E" cells: large BFU-E >20 clusters / Total colony numbers from 1,000 "BFU-E" cells: small BFU-E 5-20 clusters: CD24 and CD71 10% low BFU-E cells, SFELE, 100 nM Dex and/or 333 μM DMOG; for Total colony numbers from 1000 BFU-E cells: Large BFU-E / Total colony numbers from 1000 BFU-E cells: Single CFU-E / Total colony numbers from 1000 BFU-E cells: Small BFU-E: CD71 10% low BFU-E cells, SFELE with 100 nM Dex
Protocol: Dexamethasone prevents BFU-E cell exhaustion, which allows more CFU-E cells to be formed. […] (A) The total number of cells formed from 1000 BFU-E cells at different time points. […] Standard deviation between four separate biological experiments is shown in parenthesis (n/d=not determined).
At daily intervals colony assays were performed (Table 2). As in the experiment in FIG. 3, for the first three days the total number of cells increased at the same rate in all cultures.
(§1) Colonies were scored after 3 days. […] The number of hemoglobinized early BFU-E and late BFU-E colonies was determined after 8-9 days following staining with 2,7-Diaminofluorene (Sigma Chemical, St. Louis, Mo.).

BFU-E cells [2] = experiment: Colony forming assays of sorted BFU-E fractions (Table S2); format: cell-based, mouse
Source text: Separation of BFU-E and CFU-E cells by expression of CD71, CD24a or both CD71 and CD24a. C-kit positive BFU-E and CFU-E cells were sorted from FLEP cells based on expression of CD71, CD24a or both CD71 and CD24a. In all experiments the BFU-E fraction was the subset of c-kit^positive FLEP cells with the 10% lowest expression of CD71 and/or CD24a, while the CFU-E fraction was the subset with 20% highest expression of CD71 and/or CD24a. Sorted BFU-E and CFU-E populations were subjected to colony forming assays under two different conditions. […] The number of CFU-E colonies (±standard deviation) is shown. The sorted “BFU-E” populations mostly formed small CFU-E clusters rather than single CFU-E colonies in these assays. These CFU-E clusters are formed by precursors to CFU-Es and were scored separately as multi-CFU-Es. The number of “multi-CFU-Es” is not shown since these cells likely represent the same cells as those forming small BFU-E colonies.
The potential of the sorted cells to form large BFU-E, small BFU-E, CFU-G/M/Mk, and CFU-GEMM colonies (±standard deviation) was determined by a second assay in methyl cellulose containing 10U Epo, 20 nM IL-3, 20 nM IL-6 and 50 nM SCF per mL, and was scored at day 8-9. […] To determine the effect of DMOG, colony assays of sorted BFU-E (CD71 and CD24a^10% low) cells were also performed in the presence of 333 μM DMOG. In agreement with the finding that DMOG enhances BFU-E self-renewal BFU-E colonies were larger with a more immature appearance in the presence of DMOG and Dex. Therefore, in the presence of DMOG and Dex most BFU-E colonies were scored as “large BFU-Es.”
No GEMM colonies were formed (Table S2).
as §1

[3] = CD71 10% low cells, SFELE with Dex, Day 3
[4] = Day 3 of culture, 100 nM Dex or 333 μM DMOG alone
[5] = CD24a 10% low cells, 100 nM Dex
[6] = CD71/CD24a 10% low cells, 100 nM Dex and/or 333 μM DMOG
[7] = purified CD71 10% low cells, with Dex

C[C@@H]1C[C@H]2[C@@H]3CCC4=CC(=O)C=C[C@]4(C)[C@@]3(F)[C@@H](O)C[C@]2(C)[C@@]1(O)C(=O)CO [Dex, dexamethasone]
Total colony numbers from 1,000 "BFU-E" cells: CFU-E 1 cluster (BFU-E cells [1]; day 0 (before culture)): 30 (±11)
Total colony numbers from 1,000 "BFU-E" cells: large BFU-E >20 clusters (BFU-E cells [1]; day 0 (before culture)): 423 (±31)
Total colony numbers from 1,000 "BFU-E" cells: small BFU-E 5-20 clusters (BFU-E cells [1]; day 0 (before culture)): 262 (±64)
Total colony numbers from 1,000 "BFU-E" cells: CFU-E 1 cluster (BFU-E cells [1]; day 1): 424 (±271)
Total colony numbers from 1,000 "BFU-E" cells: large BFU-E >20 clusters (BFU-E cells [1]; day 1): 463 (±61)
Total colony numbers from 1,000 "BFU-E" cells: small BFU-E 5-20 clusters (BFU-E cells [1]; day 1): 1,766 (±695)
Total colony numbers from 1,000 "BFU-E" cells: CFU-E 1 cluster (BFU-E cells [1]; day 2): 11,468 (±1,088)
Total colony numbers from 1,000 "BFU-E" cells: large BFU-E >20 clusters (BFU-E cells [1]; day 2): 482 (±110)
Total colony numbers from 1,000 "BFU-E" cells: small BFU-E 5-20 clusters (BFU-E cells [1]; day 2): 5,771 (±1,625)
Total colony numbers from 1,000 "BFU-E" cells: CFU-E 1 cluster (BFU-E cells [1]; day 3): 60,699 (±22,369)
Total colony numbers from 1,000 "BFU-E" cells: large BFU-E >20 clusters (BFU-E cells [1]; day 3): 400 (±108)
Total colony numbers from 1,000 "BFU-E" cells: small BFU-E 5-20 clusters (BFU-E cells [1]; day 3): 8,334 (±2,489)
Total colony numbers from 1,000 "BFU-E" cells: CFU-E 1 cluster (BFU-E cells [1]; day 4): 138,600 (±24,546)
Total colony numbers from 1,000 "BFU-E" cells: CFU-E 1 cluster (BFU-E cells [1]; day 5): 261,550 (±98,160)
Total colony numbers from 1,000 "BFU-E" cells: large BFU-E >20 clusters (BFU-E cells [1]; day 5): 0
Total colony numbers from 1,000 "BFU-E" cells: small BFU-E 5-20 clusters (BFU-E cells [1]; day 5): 10,271 (±3,344)
Total colony numbers from 1,000 "BFU-E" cells: CFU-E 1 cluster (BFU-E cells [1]; day 6): 249,160 (±55,172)
Total colony numbers from 1,000 "BFU-E" cells: CFU-E 1 cluster (BFU-E cells [1]; day 7 (performed twice)): 176,000 (±15,556)
Total colony numbers from 1,000 "BFU-E" cells: CFU-E 1 cluster (BFU-E cells [1]; day 8 (performed twice)): 66,000 (±56,003)
Total colony numbers from 1000 BFU-E cells: Large BFU-E (BFU-E cells [1]; 0 h (before culture)): 241 (±79)
Total colony numbers from 1000 BFU-E cells: Single CFU-E (BFU-E cells [1]; 0 h (before culture)): 73 (±26)
Total colony numbers from 1000 BFU-E cells: Small BFU-E (BFU-E cells [1]; 0 h (before culture)): 277 (±89)
Total colony numbers from 1000 BFU-E cells: Large BFU-E (BFU-E cells [1]; 24 h): 181 (±132)
Total colony numbers from 1000 BFU-E cells: Single CFU-E (BFU-E cells [1]; 24 h): 1,164 (±593)
Total colony numbers from 1000 BFU-E cells: Small BFU-E (BFU-E cells [1]; 24 h): 1,568 (±604)
Total colony numbers from 1000 BFU-E cells: Large BFU-E (BFU-E cells [1]; 48 h): 130 (±53)
Total colony numbers from 1000 BFU-E cells: Single CFU-E (BFU-E cells [1]; 48 h): 25,342 (±5,714)
Total colony numbers from 1000 BFU-E cells: Small BFU-E (BFU-E cells [1]; 48 h): 6,730 (±515)
Total colony numbers from 1000 BFU-E cells: Large BFU-E (BFU-E cells [1]; 72 h): 150 (±58)
Total colony numbers from 1000 BFU-E cells: Single CFU-E (BFU-E cells [1]; 72 h): 122,413 (±14,086)
Total colony numbers from 1000 BFU-E cells: Small BFU-E (BFU-E cells [1]; 72 h): 15,350 (±3,838)
Total colony numbers from 1000 BFU-E cells: Single CFU-E (BFU-E cells [1]; 120 h): 904,050 (±434,778)
Late BFU-Es per initial sorted BFU-E cell (BFU-E cells [1]; CD71 10% low cells, SFELE with Dex, Day 2): 67
CFU-Es formed per BFU-E (BFU-E cells [1]; [3]): 122
Late BFU-Es per initial sorted BFU-E cell (BFU-E cells [1]; [3]): 153
BFU-Es per plated BFU-E (BFU-E cells [1]; [4]): 8.7
CFU-Es per plated BFU-E (BFU-E cells [1]; [4]): 51
Increase of number of CFU-E cells between Days 3 and 5 (BFU-E cells [1]; cultures with Dex): 7.3 fold
CFU-E colonies (BFU-E cells [2]; [5]): 96 (±23) colonies per 1000 plated cells
CFU-G/M/Meg colonies (BFU-E cells [2]; [5]): 19 (±6) colonies per 1000 plated cells
GEMM colonies (BFU-E cells [2]; [5]): 0.8 (±2) colonies per 1000 plated cells
large BFU-E colonies (BFU-E cells [2]; [5]): 178 (±28) colonies per 1000 plated cells
small BFU-E colonies (BFU-E cells [2]; [5]): 336 (±27) colonies per 1000 plated cells
CFU-E colonies (BFU-E cells [2]; CD71 10% low cells, 100 nM Dex): 66 (±28) colonies per 1000 plated cells
CFU-G/M/Meg colonies (BFU-E cells [2]; CD71 10% low cells, 100 nM Dex): 20 (±21) colonies per 1000 plated cells
GEMM colonies (BFU-E cells [2]; CD71 10% low cells, 100 nM Dex): 0 colonies per 1000 plated cells
large BFU-E colonies (BFU-E cells [2]; CD71 10% low cells, 100 nM Dex): 222 (±84) colonies per 1000 plated cells
small BFU-E colonies (BFU-E cells [2]; CD71 10% low cells, 100 nM Dex): 289 (±85) colonies per 1000 plated cells
CFU-E colonies (BFU-E cells [2]; [6]): 33 (±10) colonies per 1000 plated cells
CFU-G/M/Meg colonies (BFU-E cells [2]; [6]): 7 (±2) colonies per 1000 plated cells
GEMM colonies (BFU-E cells [2]; [6]): 0 colonies per 1000 plated cells
large BFU-E colonies (BFU-E cells [2]; [6]): 412 (±23) colonies per 1000 plated cells
small BFU-E colonies (BFU-E cells [2]; [6]): 251 (±40) colonies per 1000 plated cells
Cells forming CFU-E colonies (BFU-E cells [2]; [7]): 6.6%
Cells forming CFU-G/M/Meg colonies (BFU-E cells [2]; [7]): 2.0%
Cells forming early BFU-Es (BFU-E cells [2]; [7]): 22%
Cells forming late BFU-E colonies (BFU-E cells [2]; [7]): 29%
